The values that follow come from publication doi:10.1101/866475v1, “α1A-adrenoceptor inverse agonists and agonists modulate receptor signalling through a conformational selection mechanism” (biorxiv, 2019).

The structures appear in SMILES notation.

Assay [1] has as its target T1, α1A-AR-A4 (and its variants α1A-AR-A4 (L312F), α1A-AR-A4-active) (Homo sapiens, UniProt P35348, C14S/T15I/L36I/I65V/N67Y/L80M/F86Y/G127A/G143A/W151F/E171V/F312L/N322K/P327L/S329Y).
T1 construct: gene ADRA1A; thermostabilised, C-terminus truncated at Ser351 plus A and His10
T1 sequence (P35348 2-351 C14S/T15I/L36I/I65V/N67Y/L80M/F86Y/G127A/G143A/W151F/E171V/F312L/N322K/P327L/S329Y): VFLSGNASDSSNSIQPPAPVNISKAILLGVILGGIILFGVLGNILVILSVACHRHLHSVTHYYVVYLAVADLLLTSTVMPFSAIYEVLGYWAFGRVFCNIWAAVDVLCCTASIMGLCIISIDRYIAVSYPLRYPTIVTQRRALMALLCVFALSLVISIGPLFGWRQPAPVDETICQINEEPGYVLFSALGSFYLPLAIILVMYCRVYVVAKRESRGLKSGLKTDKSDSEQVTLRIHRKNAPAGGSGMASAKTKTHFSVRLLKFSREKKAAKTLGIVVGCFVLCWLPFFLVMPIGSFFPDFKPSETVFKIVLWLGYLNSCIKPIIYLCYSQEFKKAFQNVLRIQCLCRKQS
As to the kind of experiment: QAPB competition binding, purified immobilised receptor (KingFisher). The conditions noted are these: 10 nM QAPB, 20 mM HEPES pH 7.5, 100 mM NaCl, 0.02% DDM, 22 °C, 2 h.

The target of the next assay is T2, WT α1A-AR (Homo sapiens, UniProt P35348).
T2 construct: gene ADRA1A; wild type, pcDNA3.1, expressed in COS-7 cells
T2 sequence (P35348 1-466): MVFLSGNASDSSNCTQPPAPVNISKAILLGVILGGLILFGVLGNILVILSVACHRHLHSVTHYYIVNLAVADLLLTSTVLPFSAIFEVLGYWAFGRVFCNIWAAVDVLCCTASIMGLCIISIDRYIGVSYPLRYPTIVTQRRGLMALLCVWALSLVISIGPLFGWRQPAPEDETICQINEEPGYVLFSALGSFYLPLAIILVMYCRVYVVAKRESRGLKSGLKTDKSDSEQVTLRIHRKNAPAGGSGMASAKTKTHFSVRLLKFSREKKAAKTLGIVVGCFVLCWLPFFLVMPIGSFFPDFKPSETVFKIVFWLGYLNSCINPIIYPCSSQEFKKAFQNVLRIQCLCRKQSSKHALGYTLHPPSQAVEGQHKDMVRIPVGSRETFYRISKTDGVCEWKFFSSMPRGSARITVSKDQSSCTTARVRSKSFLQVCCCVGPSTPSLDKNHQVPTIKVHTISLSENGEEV
It is filed as cell-based. The conditions noted are these: inverse agonist; 100 nM.

The Ki is a dissociation constant, usually derived from enzyme kinetics or from competition with a known ligand. Higher therefore signals weaker binding. With `C[C@H](Cc1cc2c(c(C(N)=O)c1)N(CCCO)CC2)NCCOc1ccccc1OCC(F)(F)F` [Silodosin], the inhibition constant Ki in assay [1] was 8.4 ± 1.9 nM.

In assay [1], `COc1cccc(OC)c1OCCNCC1COc2ccccc2O1` (stereo not drawn) [WB-4101] displayed a Ki of 7.6 ± 3.4 nM.

As to `COc1cc2nc(N3CCN(C(=O)c4ccco4)CC3)nc(N)c2cc1OC` [Prazosin], on WT α1A-AR, the “NanoBiT Gq split-luciferase assay, COS-7” value was “inverse agonism of prazosin, WB-4101, phentolamine and silodosin at WT α1A-AR-expressing COS-7 cells”.
